Assay results as given in paper PMC7592081, “Single-Atom Nanozymes Linked Immunosorbent Assay for Sensitive Detection of Aβ 1-40: A Biomarker of Alzheimer's Disease” (Research, 2020).

System: T1, horseradish peroxidase (HRP)
T1 construct: gene PRXC1A; natural HRP
Assay: steady-state kinetics, Michaelis-Menten fit, absorbance of oxidised TMB ([…] nm)
Assay type: biochemical, Armoracia rusticana
Settings: co-substrate H2O2; acetate buffer pH 3.6 (printed for the nanozyme assay)

In the case of `Cc1cc(-c2cc(C)c(N)c(C)c2)cc(C)c1N` [3,3′,5,5′-tetramethylbenzidine], the Km is reported as 427 µM.
